For data set [1], the system named is Trypanosoma cruzi. The data set is described as follows: Antitrypanosomal activity against Trypanosoma cruzi Tulahuen 2 after 5 days. Format: functional. Particulars: Tulahuen 2, 120 h, read-out: ID50 (the source's name).
Data set [2] deals with Trypanosoma cruzi. In words: Antitrypanosomal activity against Trypanosoma cruzi Tulahuen 2 at 25 uM after 5 days. It counts as functional. Particulars: Tulahuen 2, 120 h, read-out: GI.
A short description of data set [3]: Therapeutic index, ID50 for human THP1 cells to ID50 for Trypanosoma cruzi. Particulars: THP-1 cells versus Trypanosoma cruzi, read-out: TI. Format: cell-based.
A short description of data set [4]: Cytotoxicity against human THP1 cells after 48 hrs. Format: cell-based. The following applies: THP-1 cells, read-out: ID50.

In the case of `C/C(=N\NC(=S)N1CCCCC1)c1ccc([N+](=O)[O-])cc1`, the IC50 in data set [1] is > 25 µM. In addition, in data set [2], the inhibition of growth at 25 µM came out at 12%.

In the case of `CNC(=S)N/N=C(\C)c1ccc([N+](=O)[O-])cc1`, the IC50 in data set [1] is > 25 µM. Besides, the selectivity ratio in data set [3] is > 16. In data set [2], the inhibition of growth at 25 µM is 31%. Also, the CC50 at 48 h in data set [4] is > 400 µM.

As to `C/C(=N\NC(=S)N(C)C)c1ccc([N+](=O)[O-])cc1`, the IC50 in data set [1] stood at 0.28 µM. For the same molecule, the selectivity ratio in data set [3] was > 1430. Also, the inhibition of growth at 25 µM in data set [2] turned out to be 100%. For the same molecule, the CC50 at 48 h in data set [4] was > 400 µM.

Regarding `O=C(Cn1ccnc1[N+](=O)[O-])NCc1ccccc1` [BENZNIDAZOLE], the IC50 in data set [1] was found to be 7.4 µM. In addition, the selectivity ratio in data set [3] was > 40. The inhibition of growth at 25 µM in data set [2] is 100%. Moreover, the CC50 at 48 h in data set [4] was > 300 µM.

For the molecule `CC1CS(=O)(=O)CCN1/N=C/c1ccc([N+](=O)[O-])o1` (stereo not drawn) [NIFURTIMOX], the IC50 in data set [1] worked out at 7.7 µM. Besides, the selectivity ratio in data set [3] was > 38. The inhibition of growth at 25 µM in data set [2] was 100%. Also, the CC50 at 48 h in data set [4] is > 300 µM.

For the origin of these results see ChEMBL document CHEMBL1156673, “4-nitroacetophenone-derived thiosemicarbazones and their copper(II) complexes with significant in vitro anti-trypanosomal activity” (Eur J Med Chem, 2008).
